From patent publication US8581605B2 (priority 2006, dated 2013)

Format: biochemical
Conditions: pH 7.4

In the case of α-hemolysin [αHL], the “single-channel conductance of the αHL channel” value was roughly 900 pS.
